# Reference: ChEMBL document CHEMBL4043187, “Synthesis and biological evaluation of N9-cis-cyclobutylpurine derivatives for use as cyclin-dependent kinase (CDK) inhibitors” (Bioorg Med Chem Lett, 2017)
# Experiments:
# [1] = molecular target: Cyclin-dependent kinase 5/CDK5 activator 1 (Homo sapiens) (UniProt Q00535+Q15078); experiment: Inhibition of CDK5/p35 (unknown origin) using ULingt-4E-BP as substrate at 25 nM after 1 hr in presence of ATP by fluorescence assay relative to control; format: protein-complex assay
# Cyclin-dependent kinase 5/CDK5 activator 1 (Homo sapiens), sequence (Q00535 whole entry): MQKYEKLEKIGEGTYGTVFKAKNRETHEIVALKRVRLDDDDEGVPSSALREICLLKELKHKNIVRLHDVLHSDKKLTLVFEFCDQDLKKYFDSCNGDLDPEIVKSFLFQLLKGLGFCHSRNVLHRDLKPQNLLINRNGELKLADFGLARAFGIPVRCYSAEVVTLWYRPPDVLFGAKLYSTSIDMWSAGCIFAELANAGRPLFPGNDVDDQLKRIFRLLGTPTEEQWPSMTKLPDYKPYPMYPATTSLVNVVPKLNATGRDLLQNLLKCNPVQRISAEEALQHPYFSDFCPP
# Cyclin-dependent kinase 5/CDK5 activator 1 (Homo sapiens), sequence (Q15078 99-307 partner limits assumed): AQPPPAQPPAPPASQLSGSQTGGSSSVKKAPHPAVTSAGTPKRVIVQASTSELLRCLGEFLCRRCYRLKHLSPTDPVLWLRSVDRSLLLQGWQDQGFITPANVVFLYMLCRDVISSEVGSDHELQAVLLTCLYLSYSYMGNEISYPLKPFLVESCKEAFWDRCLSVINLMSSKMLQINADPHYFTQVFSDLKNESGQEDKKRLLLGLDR
# [2] = molecular target: CDK2/Cyclin A2 (Homo sapiens) (UniProt P24941+P20248); experiment: Inhibition of CDK2/CyclinA (unknown origin) using ULingt-4E-BP as substrate at 25 nM after 1 hr in presence of ATP by fluorescence assay relative to control; format: protein-complex assay
# [3] = molecular target: CDK2/Cyclin A2 (Homo sapiens, UniProt P24941); experiment: Inhibition of CDK2/CyclinA (unknown origin) using ULingt-4E-BP as substrate after 1 hr in presence of ATP by fluorescence assay; format: protein-complex assay
# [4] = molecular target: Cyclin-dependent kinase 5/CDK5 activator 1 (Homo sapiens, UniProt Q00535); experiment: Inhibition of CDK5/p35 (unknown origin) using ULingt-4E-BP as substrate after 1 hr in presence of ATP by fluorescence assay; format: protein-complex assay
# Cyclin-dependent kinase 5/CDK5 activator 1, sequence (Q00535 whole entry): as the sequence (Q00535 whole entry) above
# Cyclin-dependent kinase 5/CDK5 activator 1, sequence (Q15078 whole entry, further chain): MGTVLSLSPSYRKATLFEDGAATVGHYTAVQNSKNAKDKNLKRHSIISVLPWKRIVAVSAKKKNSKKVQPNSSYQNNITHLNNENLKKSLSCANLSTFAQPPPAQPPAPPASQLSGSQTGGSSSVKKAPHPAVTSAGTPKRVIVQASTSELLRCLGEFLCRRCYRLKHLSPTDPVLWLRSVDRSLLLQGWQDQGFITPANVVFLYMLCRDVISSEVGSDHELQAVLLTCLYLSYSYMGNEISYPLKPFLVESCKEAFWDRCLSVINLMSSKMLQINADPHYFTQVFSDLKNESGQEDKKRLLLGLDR
# [5] = molecular target: Cyclin-dependent kinase 1/cyclin B1 (Homo sapiens, UniProt P06493); experiment: Inhibition of human CDK1/CyclinB; format: protein-complex assay
# Cyclin-dependent kinase 1/cyclin B1, sequence (P06493 whole entry): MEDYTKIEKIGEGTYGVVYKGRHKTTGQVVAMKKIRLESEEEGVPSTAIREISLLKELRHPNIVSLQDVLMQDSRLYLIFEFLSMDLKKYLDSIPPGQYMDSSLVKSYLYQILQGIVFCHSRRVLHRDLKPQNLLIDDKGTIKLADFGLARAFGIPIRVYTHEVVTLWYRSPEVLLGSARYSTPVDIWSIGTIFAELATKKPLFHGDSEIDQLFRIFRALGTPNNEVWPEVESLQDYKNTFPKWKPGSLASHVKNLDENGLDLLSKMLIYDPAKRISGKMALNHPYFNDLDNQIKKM
# Cyclin-dependent kinase 1/cyclin B1, sequence (P14635 whole entry, further chain): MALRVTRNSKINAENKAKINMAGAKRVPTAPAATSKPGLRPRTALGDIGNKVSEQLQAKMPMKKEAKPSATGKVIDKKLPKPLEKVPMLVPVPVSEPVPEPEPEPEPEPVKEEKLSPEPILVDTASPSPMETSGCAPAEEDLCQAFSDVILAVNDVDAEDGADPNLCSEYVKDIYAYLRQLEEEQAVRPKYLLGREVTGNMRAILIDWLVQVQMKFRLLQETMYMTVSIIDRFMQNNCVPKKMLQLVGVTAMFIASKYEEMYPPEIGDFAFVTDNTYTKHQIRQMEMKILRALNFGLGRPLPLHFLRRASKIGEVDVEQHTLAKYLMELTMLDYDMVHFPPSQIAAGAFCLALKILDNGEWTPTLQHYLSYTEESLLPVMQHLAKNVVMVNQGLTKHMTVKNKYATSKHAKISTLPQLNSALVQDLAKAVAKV
# [6] = molecular target: CDK7/Cyclin H/MNAT1 (Homo sapiens, UniProt P50613); experiment: Inhibition of human CDK7/CyclinH/MAT1; format: protein-complex assay
# CDK7/Cyclin H/MNAT1, sequence (P51946 whole entry): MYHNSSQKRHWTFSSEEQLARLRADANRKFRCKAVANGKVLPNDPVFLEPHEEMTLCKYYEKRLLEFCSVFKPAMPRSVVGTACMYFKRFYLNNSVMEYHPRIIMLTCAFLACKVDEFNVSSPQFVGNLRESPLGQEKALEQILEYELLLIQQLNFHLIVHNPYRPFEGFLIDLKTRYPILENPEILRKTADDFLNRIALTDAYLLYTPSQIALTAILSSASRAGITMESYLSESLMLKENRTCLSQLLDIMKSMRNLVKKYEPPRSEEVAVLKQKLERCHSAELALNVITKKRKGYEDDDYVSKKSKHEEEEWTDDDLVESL
# CDK7/Cyclin H/MNAT1, sequence (P50613 whole entry): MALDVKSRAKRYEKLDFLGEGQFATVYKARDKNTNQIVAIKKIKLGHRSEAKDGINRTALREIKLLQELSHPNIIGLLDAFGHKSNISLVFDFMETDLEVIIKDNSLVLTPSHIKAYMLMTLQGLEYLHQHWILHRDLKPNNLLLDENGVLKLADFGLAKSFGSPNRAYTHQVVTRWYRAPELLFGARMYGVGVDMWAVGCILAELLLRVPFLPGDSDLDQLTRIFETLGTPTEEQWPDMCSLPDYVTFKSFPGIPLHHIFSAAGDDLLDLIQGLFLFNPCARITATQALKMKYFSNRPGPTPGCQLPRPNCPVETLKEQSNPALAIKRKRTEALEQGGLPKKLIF
# CDK7/Cyclin H/MNAT1, sequence (P51948 whole entry, further chain): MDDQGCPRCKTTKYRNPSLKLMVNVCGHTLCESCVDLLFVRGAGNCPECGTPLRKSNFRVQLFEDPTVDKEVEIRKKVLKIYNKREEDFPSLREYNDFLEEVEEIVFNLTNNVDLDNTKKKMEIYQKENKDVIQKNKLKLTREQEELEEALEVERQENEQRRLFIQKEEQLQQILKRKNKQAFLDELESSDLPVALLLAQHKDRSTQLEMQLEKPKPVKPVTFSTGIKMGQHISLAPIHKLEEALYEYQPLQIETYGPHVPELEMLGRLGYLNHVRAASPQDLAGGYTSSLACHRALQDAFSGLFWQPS
# [7] = molecular target: CDK4/Cyclin D3 (Homo sapiens, UniProt P11802); experiment: Inhibition of human CDK4/CyclinD3; format: protein-complex assay
# CDK4/Cyclin D3, sequence (P11802 whole entry): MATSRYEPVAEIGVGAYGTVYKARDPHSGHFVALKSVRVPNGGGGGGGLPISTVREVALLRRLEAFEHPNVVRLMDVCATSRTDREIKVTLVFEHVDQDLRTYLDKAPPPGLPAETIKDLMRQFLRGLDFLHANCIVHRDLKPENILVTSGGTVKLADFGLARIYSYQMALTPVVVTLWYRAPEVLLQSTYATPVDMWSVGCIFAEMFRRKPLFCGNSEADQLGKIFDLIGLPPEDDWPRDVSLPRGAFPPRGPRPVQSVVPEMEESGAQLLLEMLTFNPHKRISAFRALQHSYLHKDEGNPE
# CDK4/Cyclin D3, sequence (P30281 whole entry, further chain): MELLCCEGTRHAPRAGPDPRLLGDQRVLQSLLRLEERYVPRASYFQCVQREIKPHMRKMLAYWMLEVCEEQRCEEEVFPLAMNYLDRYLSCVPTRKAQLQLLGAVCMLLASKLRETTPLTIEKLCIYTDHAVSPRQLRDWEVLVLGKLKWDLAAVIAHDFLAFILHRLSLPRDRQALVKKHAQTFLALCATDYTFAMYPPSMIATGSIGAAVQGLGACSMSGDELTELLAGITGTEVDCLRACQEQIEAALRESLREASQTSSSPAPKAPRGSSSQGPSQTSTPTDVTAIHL
# [8] = molecular target: CDK6/cyclin D3 (Homo sapiens, UniProt Q00534); experiment: Inhibition of human CDK6/CyclinD3; format: protein-complex assay
# CDK6/cyclin D3, sequence (P30281 whole entry): as the sequence (P30281 whole entry, further chain) above
# CDK6/cyclin D3, sequence (Q00534 whole entry): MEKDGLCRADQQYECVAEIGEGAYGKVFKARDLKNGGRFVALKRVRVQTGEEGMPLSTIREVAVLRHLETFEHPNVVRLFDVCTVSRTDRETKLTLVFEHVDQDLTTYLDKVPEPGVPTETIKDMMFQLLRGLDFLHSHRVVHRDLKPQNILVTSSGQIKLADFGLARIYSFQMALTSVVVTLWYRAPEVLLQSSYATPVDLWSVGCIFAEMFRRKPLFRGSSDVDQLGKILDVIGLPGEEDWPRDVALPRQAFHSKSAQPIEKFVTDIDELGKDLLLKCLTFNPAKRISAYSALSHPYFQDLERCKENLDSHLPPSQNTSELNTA
# [9] = system: HCT-116; experiment: Growth inhibition of human HCT116 cells after 72 hrs by SRB assay; format: functional
# [10] = system: MCF7; experiment: Growth inhibition of human MCF7 cells after 72 hrs by SRB assay; format: functional
# [11] = molecular target: CDK9/cyclin T1 (Homo sapiens, UniProt P50750); experiment: Inhibition of human CDK9/CyclinT1; format: protein-complex assay
# CDK9/cyclin T1, sequence (O60563 whole entry): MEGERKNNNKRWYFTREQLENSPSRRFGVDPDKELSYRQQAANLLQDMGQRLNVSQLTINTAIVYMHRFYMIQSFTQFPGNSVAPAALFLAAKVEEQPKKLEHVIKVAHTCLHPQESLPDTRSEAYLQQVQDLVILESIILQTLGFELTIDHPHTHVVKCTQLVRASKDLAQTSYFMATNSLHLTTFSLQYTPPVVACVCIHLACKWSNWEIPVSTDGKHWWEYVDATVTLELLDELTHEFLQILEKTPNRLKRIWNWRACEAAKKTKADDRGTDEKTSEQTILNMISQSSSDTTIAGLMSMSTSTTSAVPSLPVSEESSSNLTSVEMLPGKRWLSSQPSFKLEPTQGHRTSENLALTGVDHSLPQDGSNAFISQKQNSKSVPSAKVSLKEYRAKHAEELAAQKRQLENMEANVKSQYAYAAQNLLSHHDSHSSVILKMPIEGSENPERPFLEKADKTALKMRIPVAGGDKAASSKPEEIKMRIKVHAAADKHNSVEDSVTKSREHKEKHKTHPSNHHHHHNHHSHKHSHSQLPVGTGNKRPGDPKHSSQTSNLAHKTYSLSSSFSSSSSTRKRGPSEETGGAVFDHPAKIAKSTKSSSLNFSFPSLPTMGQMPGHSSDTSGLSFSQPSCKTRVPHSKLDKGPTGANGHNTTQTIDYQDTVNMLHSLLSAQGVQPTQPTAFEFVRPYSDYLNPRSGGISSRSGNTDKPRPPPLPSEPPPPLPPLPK
# CDK9/cyclin T1, sequence (P50750 whole entry): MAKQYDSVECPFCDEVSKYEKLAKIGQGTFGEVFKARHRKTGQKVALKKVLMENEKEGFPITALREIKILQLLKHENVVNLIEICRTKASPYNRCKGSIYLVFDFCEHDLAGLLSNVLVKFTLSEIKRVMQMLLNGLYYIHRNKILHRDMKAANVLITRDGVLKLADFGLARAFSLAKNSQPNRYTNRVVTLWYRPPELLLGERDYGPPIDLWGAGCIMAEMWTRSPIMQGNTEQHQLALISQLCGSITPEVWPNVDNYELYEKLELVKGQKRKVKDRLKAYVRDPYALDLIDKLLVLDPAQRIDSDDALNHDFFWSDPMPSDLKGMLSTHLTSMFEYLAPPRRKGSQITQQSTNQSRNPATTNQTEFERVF
Structure (SMILES),inhibition [1],inhibition [2],IC50 [3],IC50 [4],also measured
Cc1cccc(C(=O)N[C@H]2C[C@@H](n3cnc4c(NCc5ccncc5)ncnc43)C2)n1,< 50%,< 50%,–,–,–
O=C(N[C@H]1C[C@@H](n2cnc3c(NCc4cccnc4)ncnc32)C1)c1cccc(Cl)c1Cl,< 50%,< 50%,–,–,–
COc1ccc(Nc2ncnc3c2ncn3[C@H]2C[C@@H](NC(=O)c3cccc(C)n3)C2)cc1OC,–,–,54 nM,94 nM,–
O=C(N[C@H]1C[C@@H](n2cnc3c(NCc4cccnc4)ncnc32)C1)c1cccc(-c2ccccc2)n1,–,–,38 nM,31 nM,–
Cc1cccc(C(=O)N[C@H]2C[C@@H](n3cnc4c(NCC5CCNCC5)ncnc43)C2)n1,–,–,48 nM,71 nM,–
Cc1cccc(C(=O)N[C@H]2C[C@@H](n3cnc4c(NC5CCN(C)CC5)ncnc43)C2)n1,–,–,–,> 1000 nM,–
O=C(N[C@H]1C[C@@H](n2cnc3c(NCc4cccnc4)ncnc32)C1)c1cccc(C(F)(F)F)n1,–,–,14 nM,23 nM,–
Cc1cccc(C(=O)N[C@H]2C[C@@H](n3cnc4c(Nc5ccncc5)ncnc43)C2)n1,–,–,> 1000 nM,> 1000 nM,–
CC(=O)N1CCC(Nc2ncnc3c2ncn3[C@H]2C[C@@H](NC(=O)c3cccc(C)n3)C2)CC1,–,–,474 nM,179 nM,–
Cc1cccc(C(=O)N[C@H]2C[C@@H](n3cnc4c(NCc5ccccc5F)ncnc43)C2)n1,55%,< 50%,–,–,–
Cc1cccc(C(=O)N[C@H]2C[C@@H](n3cnc4c(NCc5ccc(Br)cc5)ncnc43)C2)n1,80%,64%,–,–,–
O=C(N[C@H]1C[C@@H](n2cnc3c(NCc4cccnc4)ncnc32)C1)c1cnccn1,< 50%,< 50%,–,–,–
Cc1cccc(C(=O)N[C@H]2C[C@@H](n3cnc4c(NCc5ccccc5Cl)ncnc43)C2)n1,59%,< 50%,–,–,–
Cc1cccc(C(=O)N[C@H]2C[C@@H](n3cnc4c(NCc5cccc(C(F)(F)F)c5)ncnc43)C2)n1,72%,< 50%,–,–,–
Cc1cccc(C(=O)N[C@H]2C[C@@H](n3cnc4c(NCC5CCCCC5)ncnc43)C2)n1,–,–,49 nM,25 nM,–
COc1ccc(C(=O)N[C@H]2C[C@@H](n3cnc4c(NCc5cccnc5)ncnc43)C2)cc1,< 50%,< 50%,–,–,–
Cc1cccc(C(=O)N[C@H]2C[C@@H](n3cnc4c(N[C@H]5CC[C@H](O)CC5)ncnc43)C2)n1,–,–,–,> 500 nM,–
Cc1ccc(C(=O)N[C@H]2C[C@@H](n3cnc4c(NCc5cccnc5)ncnc43)C2)cc1C,< 50%,< 50%,–,–,–
Cc1cccc(C(=O)N[C@H]2C[C@@H](n3cnc4c(NC5CCN(S(C)(=O)=O)CC5)ncnc43)C2)n1,48%,62%,–,–,–

Structure (SMILES),inhibition [1],inhibition [2],IC50 [3],IC50 [4],also measured
Cc1cccc(C(=O)N[C@H]2C[C@@H](n3cnc4c(NC5CCNCC5)ncnc43)C2)n1,–,–,379 nM,162 nM,–
CN1CCCC1C(=O)N[C@H]1C[C@@H](n2cnc3c(NCc4cccnc4)ncnc32)C1 (some centres undefined),< 50%,< 50%,–,–,–
Cc1cccc(C(=O)N[C@H]2C[C@@H](n3cnc4c(NCc5ccc(C(F)(F)F)cc5)ncnc43)C2)n1,58%,< 50%,–,–,–
Cc1cccc(C(=O)N[C@H]2C[C@@H](n3cnc4c(NCc5ccc(C#N)cc5)ncnc43)C2)n1,< 50%,< 50%,–,–,–
Cc1cccc(C(=O)N[C@H]2C[C@@H](n3cnc4c(NCc5ccccc5C)ncnc43)C2)n1,< 50%,< 50%,–,–,–
Cc1cccc(C(=O)N[C@H]2C[C@@H](n3cnc4c(NC5CCN(C(=O)OC(C)(C)C)CC5)ncnc43)C2)n1,–,–,95 nM,66 nM,–
Cc1cccc(C(=O)N[C@H]2C[C@@H](n3cnc4c(NCc5cccc(Br)c5)ncnc43)C2)n1,–,–,2.1 nM,4.8 nM,IC50 [5]: 24 nM; IC50 [6]: 359 nM; IC50 [7]: 611 nM; IC50 [8]: > 1000 nM; GI [9]: 2.37 µM; GI [10]: 2.43 µM; IC50 [11]: 19 nM
Cc1cccc(C(=O)N[C@H]2C[C@@H](n3cnc4c(Nc5cccc(Cl)c5)ncnc43)C2)n1,60%,< 50%,–,–,–
Cc1cccc(C(=O)N[C@H]2C[C@@H](n3cnc4c(NCc5ccc(F)c(F)c5)ncnc43)C2)n1,–,–,29 nM,13 nM,–
Cc1cccc(C(=O)N[C@H]2C[C@@H](n3cnc4c(NCc5cccnc5)ncnc43)C2)n1,–,–,16 nM,10 nM,–
O=C(N[C@H]1C[C@@H](n2cnc3c(NCc4cccnc4)ncnc32)C1)c1c(Cl)cccc1Cl,64%,82%,–,–,–
COc1cc(Cl)ccc1C(=O)N[C@H]1C[C@@H](n2cnc3c(NCc4cccnc4)ncnc32)C1,< 50%,< 50%,–,–,–
COc1ccc(Nc2ncnc3c2ncn3[C@H]2C[C@@H](NC(=O)c3cccc(C)n3)C2)cc1,63%,< 50%,–,–,–
O=C(N[C@H]1C[C@@H](n2cnc3c(NCc4cccnc4)ncnc32)C1)c1cccnc1,< 50%,< 50%,–,–,–
Cc1cccc(C(=O)N[C@H]2C[C@@H](n3cnc4c(NCc5ccc(Cl)c(Cl)c5)ncnc43)C2)n1,–,–,77 nM,34 nM,–
CS(=O)(=O)N1CCC(C(=O)N[C@H]2C[C@@H](n3cnc4c(NCc5cccnc5)ncnc43)C2)CC1,48%,62%,–,–,–
Cc1cccc(C(=O)N[C@H]2C[C@@H](n3cnc4c(NCC5CCN(C(=O)OC(C)(C)C)CC5)ncnc43)C2)n1,–,–,376 nM,90 nM,–
CC(=O)N[C@H]1CC[C@H](Nc2ncnc3c2ncn3[C@H]2C[C@@H](NC(=O)c3cccc(C)n3)C2)CC1,–,–,160 nM,30 nM,–
Cc1cccc(C(=O)N[C@H]2C[C@@H](n3cnc4c(NCc5ccc(OC(F)(F)F)cc5)ncnc43)C2)n1,54%,< 50%,–,–,–

Structure (SMILES),inhibition [1],inhibition [2],IC50 [3],IC50 [4],also measured
O=C(CC1CCCCC1)N[C@H]1C[C@@H](n2cnc3c(NCc4cccnc4)ncnc32)C1,< 50%,< 50%,–,–,–
Cc1cccc(C(=O)N[C@H]2C[C@@H](n3cnc4c(NCc5ccccn5)ncnc43)C2)n1,54%,49%,–,–,–
Cc1cccc(C(=O)N[C@H]2C[C@@H](n3cnc4c(NCc5ccc(Oc6ccccc6)cc5)ncnc43)C2)n1,< 50%,< 50%,–,–,–
CC(=O)N[C@H]1CC[C@@H](Nc2ncnc3c2ncn3[C@H]2C[C@@H](NC(=O)c3cccc(C)n3)C2)CC1,–,–,112 nM,27 nM,–
Cc1cccc(C(=O)N[C@H]2C[C@@H](n3cnc4c(NCc5cccc(Cl)c5)ncnc43)C2)n1,–,–,7.2 nM,2.3 nM,IC50 [5]: 23 nM; IC50 [6]: 319 nM; IC50 [7]: > 1000 nM; IC50 [8]: > 1000 nM; GI [9]: 2.14 µM; GI [10]: 2.49 µM; IC50 [11]: 27 nM
O=C(N[C@H]1C[C@@H](n2cnc3c(NCc4cccnc4)ncnc32)C1)c1ccncc1,< 50%,< 50%,–,–,–
O=C(N[C@H]1C[C@@H](n2cnc3c(NCc4cccnc4)ncnc32)C1)C1CCOCC1,< 50%,< 50%,–,–,–
O=C(N[C@H]1C[C@@H](n2cnc3c(NCc4cccnc4)ncnc32)C1)c1c(F)cccc1F,57%,78%,–,–,–
Cc1cccc(C(=O)N[C@H]2C[C@@H](n3cnc4c(NCc5ccc(F)cc5)ncnc43)C2)n1,–,–,5.4 nM,30 nM,–
CN(C)c1cccc(C(=O)N[C@H]2C[C@@H](n3cnc4c(NCc5cccnc5)ncnc43)C2)c1,< 50%,< 50%,–,–,–
Cc1cccc(C(=O)N[C@H]2C[C@@H](n3cnc4c(NCc5ccc(N(C)C)cc5)ncnc43)C2)n1,53%,< 50%,–,–,–
COc1ccc(CNc2ncnc3c2ncn3[C@H]2C[C@@H](NC(=O)c3cccc(C)n3)C2)cc1,81%,57%,–,–,–
Cc1cccc(C(=O)N[C@H]2C[C@@H](n3cnc4c(NC5CCN(C(=O)OC(C)(C)C)C5)ncnc43)C2)n1 (some centres undefined),–,–,–,> 500 nM,–
COc1cccc(Nc2ncnc3c2ncn3[C@H]2C[C@@H](NC(=O)c3cccc(C)n3)C2)c1,–,–,18 nM,67 nM,–
Cc1cccc(C(=O)N[C@H]2C[C@@H](n3cnc4c(NC5CCNC5)ncnc43)C2)n1 (some centres undefined),–,–,–,> 1000 nM,–
Cc1cccc(C(=O)N[C@H]2C[C@@H](n3cnc4c(Nc5cccc(F)c5)ncnc43)C2)n1,< 50%,< 50%,–,–,–
COc1ccccc1CNc1ncnc2c1ncn2[C@H]1C[C@@H](NC(=O)c2cccc(C)n2)C1,< 50%,< 50%,–,–,–
Cc1cccc(C(=O)N[C@H]2C[C@@H](n3cnc4c(NCc5cccc(F)c5)ncnc43)C2)n1,–,–,15 nM,6 nM,–
O=C(N[C@H]1C[C@@H](n2cnc3c(NCc4cccnc4)ncnc32)C1)c1ccccc1,< 50%,< 50%,–,–,–
